# In doi:10.1101/2024.08.19.608619, “Discovery of potent SARS-CoV-2 nsp3 macrodomain inhibitors uncovers lack of translation to cellular antiviral response” (bioRxiv, 2024):
# Legend:
# alpha1A (h) = molecular target: T1, alpha1A (h) (Homo sapiens, UniProt P35348); assay: In vitro CEREP profiling, alpha1A (h) (antagonist radioligand); assay type: binding; settings: test compound 10 uM
# T1 construct: purchased Eurofins Cerep (SafetyScreen44), recognised from the panel format
# T1 sequence (P35348 1-466): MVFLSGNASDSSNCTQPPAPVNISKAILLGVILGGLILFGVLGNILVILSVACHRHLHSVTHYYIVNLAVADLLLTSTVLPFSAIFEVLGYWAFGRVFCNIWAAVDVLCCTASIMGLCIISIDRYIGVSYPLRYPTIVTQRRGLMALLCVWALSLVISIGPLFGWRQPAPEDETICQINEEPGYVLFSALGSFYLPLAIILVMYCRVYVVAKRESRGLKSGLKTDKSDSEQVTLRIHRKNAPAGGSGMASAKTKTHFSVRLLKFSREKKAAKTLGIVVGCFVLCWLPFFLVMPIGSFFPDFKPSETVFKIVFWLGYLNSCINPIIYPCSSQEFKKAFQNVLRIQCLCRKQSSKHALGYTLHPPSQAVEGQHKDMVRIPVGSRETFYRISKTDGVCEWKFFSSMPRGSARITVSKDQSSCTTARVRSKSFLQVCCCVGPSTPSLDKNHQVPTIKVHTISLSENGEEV
# Excerpt: Supplement media-1.zip/Safety_Panel_Profile.csv, table | column: perc_inhibition
# MAPKAP-K2(h) = molecular target: T2, MAPKAP-K2(h) (Homo sapiens, UniProt P49137); assay: biochemical; parameters: In vitro kinase panel profiling, per cent remaining kinase activity at 10 uM; settings: batch_name=ASAP-0014722-002; atp_concentration=90; read-out: % of control remaining
# T2 construct: gene MAPKAPK2
# T2 sequence (P49137 whole entry): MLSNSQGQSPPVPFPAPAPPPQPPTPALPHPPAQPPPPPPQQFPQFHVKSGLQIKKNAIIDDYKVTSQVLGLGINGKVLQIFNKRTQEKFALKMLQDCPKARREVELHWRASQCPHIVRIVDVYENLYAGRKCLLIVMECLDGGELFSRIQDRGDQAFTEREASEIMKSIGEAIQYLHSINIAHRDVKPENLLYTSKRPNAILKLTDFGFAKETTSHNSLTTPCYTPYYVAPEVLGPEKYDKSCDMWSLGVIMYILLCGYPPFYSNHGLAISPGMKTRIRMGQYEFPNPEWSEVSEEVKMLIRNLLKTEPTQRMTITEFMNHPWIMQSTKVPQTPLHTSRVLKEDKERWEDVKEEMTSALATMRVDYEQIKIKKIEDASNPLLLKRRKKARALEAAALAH
# Excerpt: (§1) We derisk potential for off-target activity by profiling the compound in a CEREP panel, a standard secondary pharmacology assessment, as well as a kinase panel to derisk a potential hinge-binding motif in our leads, and a PARP panel to derisk activity against human […]. Reassuringly, the compounds are selective, with the only off-targets being moderate human CHRM2 and KOR receptors activity associated with ASAP-0011198.
# PKCθ(h) = molecular target: T3, PKCθ(h) (Homo sapiens, UniProt Q04759); assay: biochemical; parameters: In vitro kinase panel profiling, per cent remaining kinase activity at 10 uM; settings: batch_name=ASAP-0014722-002; atp_concentration=15; read-out: % of control remaining
# T3 construct: gene PRKCQ
# T3 sequence (Q04759 whole entry): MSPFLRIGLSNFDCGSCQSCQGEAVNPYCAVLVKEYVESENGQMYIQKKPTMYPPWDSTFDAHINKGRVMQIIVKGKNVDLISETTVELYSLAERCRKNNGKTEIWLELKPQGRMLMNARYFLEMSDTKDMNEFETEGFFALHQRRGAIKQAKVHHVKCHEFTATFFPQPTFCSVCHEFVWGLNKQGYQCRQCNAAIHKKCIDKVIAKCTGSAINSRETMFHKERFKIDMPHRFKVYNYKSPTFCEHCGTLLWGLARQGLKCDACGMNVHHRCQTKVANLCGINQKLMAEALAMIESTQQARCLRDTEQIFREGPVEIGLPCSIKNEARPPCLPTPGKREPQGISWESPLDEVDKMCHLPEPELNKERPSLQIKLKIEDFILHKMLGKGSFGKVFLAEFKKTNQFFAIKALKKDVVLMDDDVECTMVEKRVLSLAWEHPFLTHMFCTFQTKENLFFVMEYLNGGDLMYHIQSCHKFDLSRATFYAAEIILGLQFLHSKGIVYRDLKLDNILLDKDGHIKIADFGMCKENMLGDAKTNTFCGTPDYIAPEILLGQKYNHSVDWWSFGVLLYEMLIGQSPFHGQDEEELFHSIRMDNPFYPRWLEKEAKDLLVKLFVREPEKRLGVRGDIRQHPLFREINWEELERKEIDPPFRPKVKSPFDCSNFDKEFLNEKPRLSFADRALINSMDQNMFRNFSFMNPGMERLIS
# Excerpt: as §1
# DRAK1(h) = molecular target: T4, DRAK1(h) (Homo sapiens, UniProt Q9UEE5); assay: biochemical; parameters: In vitro kinase panel profiling, per cent remaining kinase activity at 10 uM; settings: batch_name=ASAP-0014722-002; atp_concentration=10; read-out: % of control remaining
# T4 construct: gene STK17A
# T4 sequence (Q9UEE5 1-414): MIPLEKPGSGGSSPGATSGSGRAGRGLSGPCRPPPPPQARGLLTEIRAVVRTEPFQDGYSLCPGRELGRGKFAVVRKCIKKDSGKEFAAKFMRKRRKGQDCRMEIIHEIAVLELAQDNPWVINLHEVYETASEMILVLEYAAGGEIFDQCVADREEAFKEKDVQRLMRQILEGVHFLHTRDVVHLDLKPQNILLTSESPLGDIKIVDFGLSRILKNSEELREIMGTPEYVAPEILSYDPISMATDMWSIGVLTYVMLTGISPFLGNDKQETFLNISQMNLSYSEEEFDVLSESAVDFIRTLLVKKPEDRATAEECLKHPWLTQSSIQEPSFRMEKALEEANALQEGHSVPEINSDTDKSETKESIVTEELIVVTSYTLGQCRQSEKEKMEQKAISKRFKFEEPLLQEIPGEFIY
# Excerpt: as §1
# ASK1(h) = molecular target: T5, ASK1(h) (Homo sapiens, UniProt Q99683); assay: biochemical; parameters: In vitro kinase panel profiling, per cent remaining kinase activity at 10 uM; settings: batch_name=ASAP-0014722-002; atp_concentration=200; read-out: % of control remaining
# T5 construct: gene MAP3K5
# T5 sequence (Q99683 1-1374): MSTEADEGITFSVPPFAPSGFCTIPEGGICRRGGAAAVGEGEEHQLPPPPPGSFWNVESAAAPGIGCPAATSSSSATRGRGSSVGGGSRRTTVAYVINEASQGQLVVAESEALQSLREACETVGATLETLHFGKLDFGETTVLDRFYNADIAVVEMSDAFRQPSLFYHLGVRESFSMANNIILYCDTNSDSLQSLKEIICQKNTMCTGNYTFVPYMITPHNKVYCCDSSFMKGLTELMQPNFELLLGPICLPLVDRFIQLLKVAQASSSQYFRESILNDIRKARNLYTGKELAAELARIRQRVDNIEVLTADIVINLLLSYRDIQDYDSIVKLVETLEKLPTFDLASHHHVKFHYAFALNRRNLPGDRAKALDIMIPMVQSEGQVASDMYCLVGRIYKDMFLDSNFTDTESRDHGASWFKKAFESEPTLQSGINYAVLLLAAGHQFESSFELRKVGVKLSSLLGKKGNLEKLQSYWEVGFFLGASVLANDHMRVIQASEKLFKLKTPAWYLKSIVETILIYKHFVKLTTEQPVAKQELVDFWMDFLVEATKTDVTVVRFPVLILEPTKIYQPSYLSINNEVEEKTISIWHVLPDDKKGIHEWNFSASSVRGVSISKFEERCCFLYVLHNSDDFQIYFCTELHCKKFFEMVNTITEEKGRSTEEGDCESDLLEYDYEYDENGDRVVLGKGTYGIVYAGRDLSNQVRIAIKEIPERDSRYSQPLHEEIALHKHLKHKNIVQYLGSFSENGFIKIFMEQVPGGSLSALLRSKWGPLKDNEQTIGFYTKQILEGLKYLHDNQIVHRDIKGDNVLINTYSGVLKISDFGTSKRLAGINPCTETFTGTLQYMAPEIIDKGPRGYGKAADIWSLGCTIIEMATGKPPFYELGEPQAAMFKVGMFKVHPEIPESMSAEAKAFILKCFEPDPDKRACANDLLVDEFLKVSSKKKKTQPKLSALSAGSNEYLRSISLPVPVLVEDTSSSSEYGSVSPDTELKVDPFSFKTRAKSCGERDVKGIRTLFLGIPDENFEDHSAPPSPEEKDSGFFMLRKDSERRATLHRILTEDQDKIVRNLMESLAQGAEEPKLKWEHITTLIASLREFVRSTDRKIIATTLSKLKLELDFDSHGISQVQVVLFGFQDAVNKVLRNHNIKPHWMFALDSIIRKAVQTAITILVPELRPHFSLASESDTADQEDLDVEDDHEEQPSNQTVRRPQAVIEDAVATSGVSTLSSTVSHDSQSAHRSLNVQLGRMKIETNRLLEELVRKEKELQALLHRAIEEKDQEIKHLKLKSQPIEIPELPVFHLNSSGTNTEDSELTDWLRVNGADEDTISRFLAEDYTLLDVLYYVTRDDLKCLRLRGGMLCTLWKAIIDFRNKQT
# Excerpt: as §1
smiles,measurement,setting,value
C[C@H](C(=O)O)[C@@H](NC(=O)c1ncnc2[nH]ccc12)c1ccc(Br)cc1 [ASAP-0014722],perc_inhibition (% inhibition of the binding of a ligand specific for each target),alpha1A (h),-8%
same,remaining activity at 10 µM,MAPKAP-K2(h),98%
same,remaining activity at 10 µM,PKCθ(h),100%
same,remaining activity at 10 µM,DRAK1(h),98%
same,remaining activity at 10 µM,ASK1(h),102%
